According to ChEMBL document CHEMBL1201862, “PubChem BioAssay data set” (2004):
Active and inactive are the calls of the source.

Key:
[1] = biological target: T1, Short transient receptor potential channel 4 (Mus musculus, UniProt Q9QUQ5); assay: SAR Analysis for the identification of selective inhibits of the transient receptor potential cation channel C4 (TRPC4): Automated Electrophysiology_2. [Related pubchem assays (depositor defined):AID2256]; assay type: functional
T1 sequence (Q9QUQ5 whole entry): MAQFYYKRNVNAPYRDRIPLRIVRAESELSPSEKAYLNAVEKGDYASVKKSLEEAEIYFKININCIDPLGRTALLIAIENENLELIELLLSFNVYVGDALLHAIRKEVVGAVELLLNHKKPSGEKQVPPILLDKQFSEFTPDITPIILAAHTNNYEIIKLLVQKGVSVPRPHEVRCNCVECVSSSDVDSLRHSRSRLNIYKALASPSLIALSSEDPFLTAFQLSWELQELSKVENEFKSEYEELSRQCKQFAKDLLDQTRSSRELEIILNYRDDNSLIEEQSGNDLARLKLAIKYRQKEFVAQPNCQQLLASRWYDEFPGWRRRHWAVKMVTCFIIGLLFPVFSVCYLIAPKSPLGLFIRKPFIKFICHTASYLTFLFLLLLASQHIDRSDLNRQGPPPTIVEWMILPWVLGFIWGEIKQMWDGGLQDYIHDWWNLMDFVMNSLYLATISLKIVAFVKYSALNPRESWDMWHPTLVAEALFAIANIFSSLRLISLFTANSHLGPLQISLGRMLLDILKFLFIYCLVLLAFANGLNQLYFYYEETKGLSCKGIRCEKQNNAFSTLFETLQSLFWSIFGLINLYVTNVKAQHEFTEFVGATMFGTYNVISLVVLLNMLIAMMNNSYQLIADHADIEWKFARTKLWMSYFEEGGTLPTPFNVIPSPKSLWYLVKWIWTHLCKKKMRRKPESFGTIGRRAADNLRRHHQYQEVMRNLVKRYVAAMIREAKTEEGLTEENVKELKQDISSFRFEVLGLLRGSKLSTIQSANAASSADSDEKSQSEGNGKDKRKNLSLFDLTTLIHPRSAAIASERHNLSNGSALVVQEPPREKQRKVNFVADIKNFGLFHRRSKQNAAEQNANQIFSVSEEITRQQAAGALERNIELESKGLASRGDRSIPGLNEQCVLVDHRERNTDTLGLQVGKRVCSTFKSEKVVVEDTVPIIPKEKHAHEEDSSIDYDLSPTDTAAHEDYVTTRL

[2] = cytotoxicity toward NIH3T3 fibroblasts, dose response, counter-screen, cell-based, ATP luminescence, mouse fibroblasts (AID 2010); assay type: functional;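 also: cells exposed to compound for about 90 hours before reading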
[3] = inhibitors of intracellular T. cruzi replication, confirmation, NIH3T3 host cells, beta-gal luminescence (AID 2044); assay type: functional, cell-based;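 also: intracellular parasites grown in NIH/3T3 mouse fibroblasts as host cells; luminescent beta-galactosidase reporter signal from transgenic T. cruzi replicating inside host cells; inhibitors lower the luminescence signal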
[4] = Luminescence Cell-Based/Microorganism Confirmation at Dose of Inhibitors of Trypanosoma cruzi Infection. [Related pubchem assays: 1885, 1968 ]; assay type: functional
[5] = inhibitors of Trypanosoma cruzi host-cell infection, confirmation, beta-gal luminescence, NIH3T3 host cells (AID 2630); assay type: functional, cell-based; details: Mus musculus
[6] = Luminescence Cell-Based Secondary HTS screen to identify cytotoxic compounds of NIH3T3 cells. [Related pubchem assays: 1885, 1968 ]; assay type: functional
HEK293 [7] = assay: cells; assay type: functional, cell-based; details: Homo sapiens
[8] = Shn3 3'UTR reporter inhibitors, dose response, cell-based, Clone20 osteoblasts, firefly luciferase, cherry-picked (AID 624132); assay type: functional;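 also: firefly luciferase luminescence from reporter carrying the Shn3 3'UTR in osteoblasts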
HEK293 [9] = assay: NOD1 signaling inhibitors, primary screen, cell-based, luminescence, uHTS (AID 1578); assay type: functional; details: Homo sapiens
[10] = control 3'UTR Renilla luciferase suppression, dose response, counter-screen for Shn3 inhibitor project, cell-based, Clone20-Shn3RL, cherry-picked (AID 624133); assay type: functional
INS1 = assay: beta cell apoptosis inhibitors, cytokine rescue, dose response, luminescence, retest (AID 449756); assay type: functional, cell-based; details: Rattus norvegicus;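 also: cell death triggered by IL-1 beta plus TNF-alpha plus IFN-gamma mixture; protective hits raise ATP signal compared with cytokine alone wells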
HEK293 [11] = assay: cells; assay type: functional, cell-based; details: Homo sapiens; remark: listed apart in the source
[12] = biological target: Nucleotide-binding oligomerization domain-containing protein 1 (Homo sapiens, UniProt Q9Y239); assay: NOD1 signaling inhibitors, SAR follow-up, revised (AID 2333); assay type: functional
[13] = HepG2 cell cytotoxicity, dose response, cytotoxicity control for Shn3 inhibitor project, CellTiter-Glo, cherry-picked (AID 624134); assay type: functional, cell-based
HEK293 [14] = assay: cells; details: Homo sapiens
HEK293 [15] = assay: NOD2 signaling inhibitors in MDP-stimulated cells, cell-based, uHTS, luminescence (AID 2001); assay type: functional; details: Homo sapiens
[16] = biological target: FAD-linked sulfhydryl oxidase ALR (Homo sapiens, UniProt P55789); assay: inhibitors of human ALR sulfhydryl oxidase, dose response, biochemical, H2O2 detection, luminescence, cherry-pick (AID 493248)
[17] = biological target: T2, Zinc finger protein mex-5 (Caenorhabditis elegans, UniProt Q9XUB2); assay: MEX-5/TCR-2 RNA interaction inhibitors, dose response, biochemical, C. elegans, fluorescence polarization (AID 1960)
T2 sequence (Q9XUB2 whole entry): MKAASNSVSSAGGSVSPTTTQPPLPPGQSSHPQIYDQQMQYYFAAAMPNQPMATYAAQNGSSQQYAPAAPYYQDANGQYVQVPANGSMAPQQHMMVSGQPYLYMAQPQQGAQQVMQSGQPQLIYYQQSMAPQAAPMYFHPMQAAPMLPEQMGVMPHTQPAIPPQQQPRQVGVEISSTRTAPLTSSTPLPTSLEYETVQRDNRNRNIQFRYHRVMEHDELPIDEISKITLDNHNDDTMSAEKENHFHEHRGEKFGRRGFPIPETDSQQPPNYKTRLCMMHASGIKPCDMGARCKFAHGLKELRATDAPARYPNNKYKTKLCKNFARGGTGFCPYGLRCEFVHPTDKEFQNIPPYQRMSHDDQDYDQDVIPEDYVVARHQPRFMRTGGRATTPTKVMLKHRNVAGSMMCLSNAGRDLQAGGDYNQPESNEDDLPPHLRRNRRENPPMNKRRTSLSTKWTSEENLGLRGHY

[18] = biological target: T3, RNA-binding protein pos-1 (Caenorhabditis elegans, UniProt G5EF15); assay: inhibitors of POS-1/mex-3 RNA binding, dose response, biochemical, fluorescence polarization (AID 1964);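 also: purified POS-1 fused to maltose binding protein made in E. coli; potency of compounds blocking POS-1 binding to fluorescent RNA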
T3 sequence (G5EF15 whole entry): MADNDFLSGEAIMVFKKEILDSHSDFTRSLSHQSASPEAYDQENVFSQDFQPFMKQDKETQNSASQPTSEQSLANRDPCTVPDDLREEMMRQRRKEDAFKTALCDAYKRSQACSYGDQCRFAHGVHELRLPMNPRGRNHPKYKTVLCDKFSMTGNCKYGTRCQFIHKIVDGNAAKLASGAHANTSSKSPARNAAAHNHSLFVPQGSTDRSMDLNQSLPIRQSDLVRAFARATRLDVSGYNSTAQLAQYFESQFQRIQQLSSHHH

[19] = biological target: Lysine-specific demethylase 4C (Homo sapiens, UniProt Q9H3R0); assay: GASC-1 (JMJD2C) histone demethylase inhibitors, dose response, biochemical, DELFIA europium, cherry-picked samples (AID 488835); assay type: functional
[20] = biological target: Intestinal-type alkaline phosphatase (Mus musculus, UniProt P24822); assay: PubChem AID 488875; assay type: functional
[21] = biological target: T4, Alkaline phosphatase, tissue-nonspecific isozyme (Homo sapiens, UniProt P05186); assay: TNAP enzyme activators, dose response, selectivity assay for human IAP activator project, biochemical, TNAP isozyme, human IAP uHTS hits (AID 488886); assay type: functional;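 also: potency of compounds raising TNAP activity as a selectivity check on IAP activators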
T4 sequence (P05186 whole entry): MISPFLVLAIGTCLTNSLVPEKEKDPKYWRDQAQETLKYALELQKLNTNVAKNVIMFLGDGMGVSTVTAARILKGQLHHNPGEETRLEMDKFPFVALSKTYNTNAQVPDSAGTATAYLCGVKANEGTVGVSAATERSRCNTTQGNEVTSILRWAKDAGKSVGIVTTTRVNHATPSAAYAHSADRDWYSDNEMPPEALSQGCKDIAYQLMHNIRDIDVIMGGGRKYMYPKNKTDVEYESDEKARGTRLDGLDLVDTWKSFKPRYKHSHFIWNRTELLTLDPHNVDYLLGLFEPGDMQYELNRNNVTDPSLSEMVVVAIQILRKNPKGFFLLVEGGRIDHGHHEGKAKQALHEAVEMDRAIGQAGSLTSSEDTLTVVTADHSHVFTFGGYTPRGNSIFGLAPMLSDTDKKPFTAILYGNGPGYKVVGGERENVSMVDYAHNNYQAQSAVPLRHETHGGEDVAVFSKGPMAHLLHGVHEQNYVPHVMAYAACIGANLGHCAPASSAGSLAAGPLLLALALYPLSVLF

[22] = biological target: T5, Intestinal-type alkaline phosphatase (Homo sapiens, UniProt P09923); assay: human intestinal alkaline phosphatase activators, dose response, biochemical, luminescence, uHTS hits (AID 463120); assay type: functional
[23] = biological target: T5, Intestinal-type alkaline phosphatase; assay: human IAP activators, dose response, biochemical, luminescent, uHTS hits, set 2 (AID 488817); assay type: functional;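 also: potency of activators that raise enzyme activity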
[24] = cytotoxicity in HMLE control line with eGFP shRNA, dose response, counter-screen for HMLE_sh_ECad selective toxicity project, cell-based, HMLE_sh_eGFP, luminescence (AID 463074); assay type: functional, Homo sapiens;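 also: HMLE human mammary epithelial cells expressing control shRNA against eGFP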
[25] = Luminescence Cell-Based Dose Retest to Confirm Inhibitors of Cancer Stem Cells. [Related pubchem assays (depositor defined):AID2717, AID2721]; assay type: functional; details: Homo sapiens
Keap1/Nrf2 = Keap1/Nrf2 (Homo sapiens, UniProt Q14145); assay: Keap1-Nrf2 protein-protein interaction inhibitors, dose response, biochemical, fluorescence polarization, cherry-picked samples (AID 588683)
MDCK [26] = assay: antiviral activity against H1N1 influenza, dose response, cell-based, strain KY180 (AID 540254); assay type: functional; details: Canis lupus familiaris
Nonstructural protein 1 = Nonstructural protein 1 (Influenza A virus, UniProt Q194T2); assay type: functional, Influenza A virus (A/California/07/2009(H1N1))
MDCK [27] = assay: MDCK cell cytotoxicity, dose response, cytotoxicity control (AID 540296); assay type: functional; details: Canis lupus familiaris
[28] = biological target: Phosphoethanolamine/phosphocholine phosphatase (Homo sapiens, UniProt Q8TCT1); assay: SAR assay for compounds that inhibit PHOSPHO1. [Related pubchem assays (depositor defined):AID1545, AID1565, AID1574]
Phosphomannomutase 2 = Phosphomannomutase 2 (Homo sapiens, UniProt O15305); assay: Counter screen SAR assay for PMM2 inhibitors via a fluorescence intensity assay. [Related pubchem assays (depositor defined):AID1545, AID1574]
[29] = biological target: T6, Mannose-6-phosphate isomerase (Homo sapiens, UniProt P34949); assay: PMI enzyme inhibitors, confirmation, biochemical, fluorescence intensity (AID 1535)
T6 sequence (P34949 whole entry): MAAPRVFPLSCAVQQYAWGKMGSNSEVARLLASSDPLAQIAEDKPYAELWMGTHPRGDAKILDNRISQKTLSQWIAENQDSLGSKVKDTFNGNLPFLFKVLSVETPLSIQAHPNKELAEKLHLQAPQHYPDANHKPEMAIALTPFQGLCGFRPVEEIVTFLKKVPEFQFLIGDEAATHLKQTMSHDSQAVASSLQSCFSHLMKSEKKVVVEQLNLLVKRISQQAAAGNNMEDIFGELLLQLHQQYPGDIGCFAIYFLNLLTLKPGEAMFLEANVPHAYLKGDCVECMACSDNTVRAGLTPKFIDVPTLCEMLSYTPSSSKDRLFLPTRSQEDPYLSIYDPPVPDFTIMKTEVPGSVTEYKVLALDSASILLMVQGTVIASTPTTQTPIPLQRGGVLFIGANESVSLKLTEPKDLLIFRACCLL

T5 sequence (P09923 whole entry): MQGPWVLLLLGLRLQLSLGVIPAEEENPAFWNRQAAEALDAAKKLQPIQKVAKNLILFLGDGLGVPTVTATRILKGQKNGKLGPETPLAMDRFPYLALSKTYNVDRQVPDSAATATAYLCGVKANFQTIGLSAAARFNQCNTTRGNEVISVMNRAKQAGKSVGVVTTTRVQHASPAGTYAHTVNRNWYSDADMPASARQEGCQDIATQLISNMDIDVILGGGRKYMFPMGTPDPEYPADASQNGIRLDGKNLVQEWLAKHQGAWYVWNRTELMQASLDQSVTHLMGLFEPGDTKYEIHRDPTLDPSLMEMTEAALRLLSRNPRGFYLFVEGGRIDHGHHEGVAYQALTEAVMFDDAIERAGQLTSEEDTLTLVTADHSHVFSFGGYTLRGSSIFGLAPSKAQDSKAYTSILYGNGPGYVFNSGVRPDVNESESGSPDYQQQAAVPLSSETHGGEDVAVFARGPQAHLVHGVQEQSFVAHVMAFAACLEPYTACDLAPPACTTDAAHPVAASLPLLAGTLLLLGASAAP
Lysine-specific demethylase 4C, sequence (Q9H3R0 whole entry): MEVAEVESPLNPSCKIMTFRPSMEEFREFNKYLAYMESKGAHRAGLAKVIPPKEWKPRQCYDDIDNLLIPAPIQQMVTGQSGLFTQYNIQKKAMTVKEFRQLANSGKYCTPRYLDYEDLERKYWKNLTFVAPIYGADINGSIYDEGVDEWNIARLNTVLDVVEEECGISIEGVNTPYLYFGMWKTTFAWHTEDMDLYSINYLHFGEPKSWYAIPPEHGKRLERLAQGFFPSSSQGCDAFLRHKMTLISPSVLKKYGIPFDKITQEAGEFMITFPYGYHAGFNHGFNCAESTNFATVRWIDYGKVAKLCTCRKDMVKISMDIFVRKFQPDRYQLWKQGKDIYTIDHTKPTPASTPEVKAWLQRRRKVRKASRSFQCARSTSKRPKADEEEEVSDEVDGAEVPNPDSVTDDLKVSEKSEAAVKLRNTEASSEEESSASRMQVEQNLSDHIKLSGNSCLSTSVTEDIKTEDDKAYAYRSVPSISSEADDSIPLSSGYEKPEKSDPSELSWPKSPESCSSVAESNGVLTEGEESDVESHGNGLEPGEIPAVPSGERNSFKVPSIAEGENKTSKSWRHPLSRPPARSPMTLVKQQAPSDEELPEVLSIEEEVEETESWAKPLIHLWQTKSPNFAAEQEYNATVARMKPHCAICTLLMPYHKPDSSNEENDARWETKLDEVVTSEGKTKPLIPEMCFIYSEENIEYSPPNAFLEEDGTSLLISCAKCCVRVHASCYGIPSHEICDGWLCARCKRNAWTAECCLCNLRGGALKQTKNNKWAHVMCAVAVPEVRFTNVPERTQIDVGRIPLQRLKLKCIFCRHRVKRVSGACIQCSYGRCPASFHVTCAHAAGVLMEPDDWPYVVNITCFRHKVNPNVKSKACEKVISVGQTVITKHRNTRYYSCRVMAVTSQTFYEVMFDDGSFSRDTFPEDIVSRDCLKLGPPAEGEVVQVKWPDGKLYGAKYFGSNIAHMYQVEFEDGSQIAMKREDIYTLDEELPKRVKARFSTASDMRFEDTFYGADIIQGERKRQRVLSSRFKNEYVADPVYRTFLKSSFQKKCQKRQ
Phosphoethanolamine/phosphocholine phosphatase, sequence (Q8TCT1 whole entry): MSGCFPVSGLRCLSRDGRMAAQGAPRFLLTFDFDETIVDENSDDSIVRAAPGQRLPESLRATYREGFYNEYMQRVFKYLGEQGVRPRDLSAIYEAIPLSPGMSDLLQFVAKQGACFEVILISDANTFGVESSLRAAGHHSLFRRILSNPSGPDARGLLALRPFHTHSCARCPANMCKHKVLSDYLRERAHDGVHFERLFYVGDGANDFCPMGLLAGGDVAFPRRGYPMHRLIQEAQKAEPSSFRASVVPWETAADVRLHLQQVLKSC
Phosphomannomutase 2, sequence (O15305 whole entry): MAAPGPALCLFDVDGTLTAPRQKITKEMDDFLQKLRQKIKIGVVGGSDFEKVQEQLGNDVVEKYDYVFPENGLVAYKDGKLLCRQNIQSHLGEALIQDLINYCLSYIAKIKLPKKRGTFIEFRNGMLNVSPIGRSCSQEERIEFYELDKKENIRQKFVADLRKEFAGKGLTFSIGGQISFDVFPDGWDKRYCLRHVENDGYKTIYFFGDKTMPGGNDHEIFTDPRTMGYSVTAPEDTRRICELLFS
FAD-linked sulfhydryl oxidase ALR, sequence (P55789 whole entry): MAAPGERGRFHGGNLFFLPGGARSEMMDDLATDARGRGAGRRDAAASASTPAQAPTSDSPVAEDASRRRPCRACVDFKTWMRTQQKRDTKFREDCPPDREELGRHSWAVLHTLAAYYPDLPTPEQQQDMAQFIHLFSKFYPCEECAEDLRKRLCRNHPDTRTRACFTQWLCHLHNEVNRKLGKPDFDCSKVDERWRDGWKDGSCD
Nonstructural protein 1, sequence (Q194T2 whole entry): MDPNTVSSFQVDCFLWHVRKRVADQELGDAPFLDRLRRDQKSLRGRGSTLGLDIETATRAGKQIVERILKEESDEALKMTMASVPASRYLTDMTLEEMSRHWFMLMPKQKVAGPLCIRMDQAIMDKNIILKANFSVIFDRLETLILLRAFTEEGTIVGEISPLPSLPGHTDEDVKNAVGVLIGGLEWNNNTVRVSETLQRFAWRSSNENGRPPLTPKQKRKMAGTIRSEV
Intestinal-type alkaline phosphatase (Mus musculus, UniProt P24822), sequence (P24822 whole entry): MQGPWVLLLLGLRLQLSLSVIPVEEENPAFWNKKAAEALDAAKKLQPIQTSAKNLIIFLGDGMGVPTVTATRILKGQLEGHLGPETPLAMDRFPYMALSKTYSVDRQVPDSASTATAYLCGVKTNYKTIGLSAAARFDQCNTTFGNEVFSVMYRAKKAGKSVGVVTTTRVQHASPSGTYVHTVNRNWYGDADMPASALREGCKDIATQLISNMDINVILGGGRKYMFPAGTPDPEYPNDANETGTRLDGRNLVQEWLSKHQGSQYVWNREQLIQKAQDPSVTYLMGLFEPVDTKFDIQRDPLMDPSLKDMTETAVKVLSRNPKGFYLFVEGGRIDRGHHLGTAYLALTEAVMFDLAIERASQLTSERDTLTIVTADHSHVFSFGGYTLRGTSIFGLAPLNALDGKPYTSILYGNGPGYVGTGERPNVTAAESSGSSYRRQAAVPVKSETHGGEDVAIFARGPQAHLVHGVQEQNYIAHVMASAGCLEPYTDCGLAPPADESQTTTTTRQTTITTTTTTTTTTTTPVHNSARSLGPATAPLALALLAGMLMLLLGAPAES
Nucleotide-binding oligomerization domain-containing protein 1, sequence (Q9Y239 whole entry, the tested form may be a part): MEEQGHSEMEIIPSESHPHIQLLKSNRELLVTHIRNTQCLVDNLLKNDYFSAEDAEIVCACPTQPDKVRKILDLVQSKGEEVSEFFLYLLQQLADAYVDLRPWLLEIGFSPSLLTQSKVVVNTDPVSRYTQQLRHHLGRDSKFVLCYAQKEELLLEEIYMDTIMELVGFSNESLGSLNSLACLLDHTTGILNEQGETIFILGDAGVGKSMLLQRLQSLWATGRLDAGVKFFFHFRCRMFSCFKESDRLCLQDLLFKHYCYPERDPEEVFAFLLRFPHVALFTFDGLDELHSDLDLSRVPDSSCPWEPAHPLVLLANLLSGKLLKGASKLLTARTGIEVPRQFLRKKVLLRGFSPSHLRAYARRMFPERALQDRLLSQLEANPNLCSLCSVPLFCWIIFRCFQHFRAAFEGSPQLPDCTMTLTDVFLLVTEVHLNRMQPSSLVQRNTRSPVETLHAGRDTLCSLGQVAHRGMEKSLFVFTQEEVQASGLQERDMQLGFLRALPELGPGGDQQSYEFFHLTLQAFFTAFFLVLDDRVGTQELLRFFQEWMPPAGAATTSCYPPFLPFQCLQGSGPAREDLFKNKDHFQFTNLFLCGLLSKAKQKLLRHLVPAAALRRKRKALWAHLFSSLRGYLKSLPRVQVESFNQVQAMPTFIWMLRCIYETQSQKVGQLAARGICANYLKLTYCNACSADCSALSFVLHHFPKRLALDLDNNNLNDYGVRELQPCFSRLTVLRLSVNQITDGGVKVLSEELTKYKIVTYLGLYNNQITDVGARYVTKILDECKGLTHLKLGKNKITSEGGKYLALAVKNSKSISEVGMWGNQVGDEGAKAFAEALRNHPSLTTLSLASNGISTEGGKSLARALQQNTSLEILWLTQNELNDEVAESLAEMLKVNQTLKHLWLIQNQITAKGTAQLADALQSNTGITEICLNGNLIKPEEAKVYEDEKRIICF

Cc1cc(N2CCN(c3ccccc3C#N)CC2)nc2ccccc12
IC50 [1]: 8.9 µM (active)

Cc1ccccc1OCCCCCn1ccnc1
EC50 [2]: > 60 µM (not active)
EC50 [3]: 0.54 µM (active)
EC50 [4]: 0.417 µM (active)
EC50 [5]: 0.417 µM (active)
EC50 [6]: 116 µM (active)

CC1Sc2ccc(S(=O)(=O)N3CCC(C(=O)Nc4ccc(Cl)cc4)CC3)cc2NC1=O (stereo not drawn)
IC50 (HEK293 [7]): 3.16 µM (active)
AC50 [8]: 2.42 µM (active)
EC50 (HEK293 [9]): 2.15 µM (active)
AC50 [10]: 1.6 µM (active)
AC50 (INS1): 4.55 µM (active)
IC50 (HEK293 [11]): 8.24 µM (active)
IC50 [12]: 3.11 µM (active)
AC50 [13]: 3.26 µM (active)
IC50 (HEK293 [14]): 7.68 µM (active)
IC50 (HEK293 [15]): 3.93 µM (active)

Oc1cc2c(cc1O)C(c1ccccc1)CNCC2 (stereo not drawn)
AC50 [16]: 5.38 µM (active)
EC50 [17]: 24 µM (active)
EC50 [18]: 109 µM (active)
AC50 [19]: 15.2 µM (active)

COc1ccc(CN2CCC(n3nccc3NC(=O)CCCc3ccccc3)CC2)cc1C
EC50 [20]: 75 µM (active)
EC50 [21]: 70.1 µM (active)
EC50 [22]: 77.4 µM (active)
EC50 [23]: 72.5 µM (active)

Cc1ccc2ncnc(Nc3ccc(C)c(C)c3)c2c1
AC50 [24]: 63.8 µM (active)
AC50 [25]: 1.03 µM (active)

CCCCOc1ccc(C2OC34CCCCC3C(C#N)(C#N)C2(C#N)C(=N)O4)cc1 (stereo not drawn)
AC50 (Keap1/Nrf2): > 52 µM (inactive)

CCOC(=O)c1c(CN(C)C)oc2cc(CN(C)C)c(O)c(CSc3ccccc3)c12
IC50 (MDCK [26]): 22.6 µM (active)
IC50 (Nonstructural protein 1): > 100 µM (active)
CC50 (MDCK [27]): 19.5 µM (active)

O=c1c2c([N+](=O)[O-])cc([N+](=O)[O-])cc2sn1-c1cccc(F)c1
IC50 [28]: 0.0348 µM (active)
IC50 (Phosphomannomutase 2): 2.08 µM (active)
IC50 [29]: 30.1 µM (active)
